The text below walks through data of US4622337A, “2,2-dimethyl-3-(2-halovinyl)cyclopropane carboxlic acid ester pesticides” (priority 1972, dated 1986).

Test [1] concerns female flies (houseflies). Briefly: Synergisability with sesamex, 2 μg per fly pretreatment. It is filed as in vivo, Musca domestica. As to conditions: for Approx. Synergistic factor: sesamex, 2 μg. per fly; for LD 50 active compound + synergist: pretreated with 2 μg. per fly sesamex; for LD 50 active compound only: untreated flies. The method, then:
(§1) Female flies were treated on the thorax with a one microliter drop of insecticide dissolved in acetone. Two replicates of 15 flies were used at each dose rate and 6 dose rates were used per compound under test. After treatment, the flies were maintained at a temperature of 20° C.±1° and kill was assessed 24 and 48 hours after treatment. LD50 values were calculated in micrograms of insecticide per fly and relative toxicities were calculated from the inverse ratios of the LD50 values.

The test system of test [2] is houseflies (Musca domestica). Briefly: Relative toxicity to houseflies, topical drop on thorax. It is filed as in vivo. As to conditions: 5-benzyl-3-furylmethyl (1R)-trans-chrysanthemate = 1000; inverse ratio of LD50; topical, female flies. The method, then:
(§2) The toxicity of these new esters was tested by the procedure described in detail in our above mentioned application and the following results were obtained:
(§3) The insecticidal acitivity of the esters of the invention was assessed against houseflies and mustard beetles using the following techniques:
as §1, with “values. (see Sawicki et al, Bulletin of the World Health Organization, 35,893, (1966) and Sawicki et al, Entomologia and Exp. Appl. 10, 253, (1967)).” for “values.”
(§4) Relative toxicities were calculated by comparison with 5-benzyl-3-furylmethyl(1R)-trans-chrysanthemate which is one of the most toxic chrysanthemate esters known to houseflies and mustard beetles, its toxicity being about 24 times that of allethrin to houseflies and 65 times that of allethrin to mustard beetles.

Test [3] relates to mustard beetles (Phaedon cochleariae Fab). In words: Relative toxicity to mustard beetles, topical micro drop. It is filed as in vivo. The conditions noted are these: 5-benzyl-3-furylmethyl (1R)-trans-chrysanthemate = 1000; inverse ratio of LD50; topical, 48 hours. The method, then:
as §2, §3
Acetone solutions of the test compound were applied ventrally to adult mustard beetles using a micro drop applicator. The treated insects were maintained for 48 hours after which time kill is assessed. Two replicates of 40 to 50 mustard beetles were used at each dose level and 3 to 4 dose levels were used for each compound. Again, LD50 values were calculated and relative toxicities were calculated for the inverse ratios of LD50 (see Elliott et al, J. Sci. Food Agric. 20, 561, (1969)).
as §4

SMILES strings stand for the structures.

In the case of `CC(C)=CC1C(C(=O)OCc2coc(Cc3ccccc3)c2)C1(C)C` (racemic) [5-benzyl-3-furyl methyl (1RS)--cis-trans-chrysanthemate, reference compound], the “Approx. Synergistic factor” value in test [1] is approximately 13.

For `CC1(C)[C@H](C=C(Cl)Cl)[C@H]1C(=O)OCc1cccc(Oc2ccccc2)c1` (racemic) [Compound P21F, 3-Phenoxybenzyl(1RS)-trans-2,2-dimethyl-3-(2,2-dichlorovinyl)cyclopropane carboxylate], in test [1], the “LD 50 active compound + synergist” value amounted to 0.00033 μg. per female fly, the “Approx. Synergistic factor” value is on record as approximately 39 and the “LD 50 active compound only” value was 0.013 μg. per female fly. Besides, the “Relative Toxicity, Houseflies” value in test [2] is reported as 400. Further, in test [3], the “Relative Toxicity, Mustard Beetles” value was 790.

For `CC1(C)[C@H](C(=O)OCc2coc(Cc3ccccc3)c2)[C@@H]1C=C(Cl)Cl` (relative stereo) [Compound P21D], in test [1], the “LD 50 active compound + synergist” value is on record as 0.00046 μg. per female fly, the “Approx. Synergistic factor” value is on record as approximately 12 and the “LD 50 active compound only” value is 0.0058 μg. per female fly. In test [2], the “Relative Toxicity, Houseflies” value turned out to be 1200. Further, in test [3], the “Relative Toxicity, Mustard Beetles” value was 1700.

On to `CC/C=C\[C@H]1[C@@H](C(=O)OCc2coc(Cc3ccccc3)c2)C1(C)C` [Compound A cis], for which, in test [1], the “LD 50 active compound + synergist” value was 0.0012 μg. per female fly, the “Approx. Synergistic factor” value is given as approximately 6 and the “LD 50 active compound only” value is on record as 0.0074 μg. per female fly.

As for `CCCOC(=O)C(Cl)=C[C@@H]1[C@@H](C(=O)OCc2coc(Cc3ccccc3)c2)C1(C)C` [Compound P24C], the “Relative Toxicity, Houseflies” value in test [2] is given as 53. For the same compound, the “Relative Toxicity, Mustard Beetles” value in test [3] is given as 120.

Regarding `CCOC(=O)C(Br)=C[C@@H]1[C@@H](C(=O)OCc2coc(Cc3ccccc3)c2)C1(C)C` [Compound P24D], the “Relative Toxicity, Houseflies” value in test [2] is 450. Also, in test [3], the “Relative Toxicity, Mustard Beetles” value stood at 290.

On to `CC1(C)[C@H](C(=O)OCc2cccc(Oc3ccccc3)c2)[C@@H]1C=C(Br)Br` [Compound P29A, 3-phenoxybenzyl(1R)cis-2,2-dimethyl-3-(2,2-dibromovinyl)cyclopropane carboxylate], for which, in test [2], the “Relative Toxicity, Houseflies” value was 2200. Also, the “Relative Toxicity, Mustard Beetles” value in test [3] was 1600.

Regarding `CC1(C)[C@H](C(=O)OC(C#N)c2cccc(Oc3ccccc3)c2)[C@@H]1C=C(Br)Br` (stereo partly drawn) [Compound P29B, (αRS)-cyano-3-phenoxybenzyl(1R)cis-2,2-dimethyl-3-(2,2-dibromovinyl)cyclopropane carboxylate], the “Relative Toxicity, Houseflies” value in test [2] came out at 10000. Moreover, in test [3], the “Relative Toxicity, Mustard Beetles” value is reported as 11000.

Take `CC1(C)[C@H](C=C(Br)Br)[C@H]1C(=O)OCc1cccc(Oc2ccccc2)c1` [Compound P29C, 3-phenoxybenzyl(1R)trans-2,2-dimethyl-3-(2,2-dibromovinyl)-cyclopropane carboxylate]: in test [2], the “Relative Toxicity, Houseflies” value is recorded as 1100. Further, the “Relative Toxicity, Mustard Beetles” value in test [3] worked out at 4000.

As to `CC1(C)[C@H](C=C(Br)Br)[C@H]1C(=O)OC(C#N)c1cccc(Oc2ccccc2)c1` (stereo partly drawn) [Compound P29D, (αRS)-cyano-3-phenoxybenzyl(1R)trans-2,2-dimethyl-3-(2,2-dibromovinyl)-cyclopropane carboxylate], the “Relative Toxicity, Houseflies” value in test [2] is listed as 4100. In test [3], the “Relative Toxicity, Mustard Beetles” value worked out at 5200.

For `CC1(C)[C@H](C=C(Cl)Cl)[C@H]1C(=O)OC(C#N)c1cccc(Oc2ccccc2)c1` (stereo partly drawn) [Compound P29E, (αRS)-cyano-3-phenoxybenzyl(1R)trans-2,2-dimethyl-3-(2,2-dichlorovinyl)-cyclopropane carboxylate], the “Relative Toxicity, Houseflies” value in test [2] is 3900. The “Relative Toxicity, Mustard Beetles” value in test [3] was found to be 3100.

As for `CC1(C)[C@H](C(=O)OC(C#N)c2cccc(Oc3ccccc3)c2)[C@@H]1C=C(Cl)Cl` (stereo partly drawn) [Compound P29J, (αRS)-cyano-3-phenoxybenzyl(1R)-cis-2,2-dimethyl-3-(2,2-dichlorovinyl)-cyclopropane carboxylate], in test [2], the “Relative Toxicity, Houseflies” value was 11000. Also, the “Relative Toxicity, Mustard Beetles” value in test [3] is 4200.

For the compound `CC1(C)[C@H](C=C(Cl)Cl)[C@@H]1C(=O)OC(C#N)c1cccc(Oc2ccccc2)c1` (stereo partly drawn) [Compound P29K, (αRS)-cyano-3-phenxoybenzyl(1S)-cis-2,2-dimethyl-3-(2,2-dichlorovinyl)-cyclopropane carboxylate], the “Relative Toxicity, Houseflies” value in test [2] came out at 140. For the same compound, the “Relative Toxicity, Mustard Beetles” value in test [3] is given as 130.

As for `CC1(C)[C@H](C=C(F)F)[C@H]1C(=O)OCc1coc(Cc2ccccc2)c1` [Compound P31A], the “Relative Toxicity, Houseflies” value in test [2] stood at 3900. The “Relative Toxicity, Mustard Beetles” value in test [3] is on record as 1900.

Turning to `CC1(C)[C@H](C=C(F)F)[C@H]1C(=O)OCc1cccc(Oc2ccccc2)c1` [Compound P31B], the “Relative Toxicity, Houseflies” value in test [2] was determined as 620. Also, the “Relative Toxicity, Mustard Beetles” value in test [3] is recorded as 270.

As to `CC1(C)[C@H](C=C(F)F)[C@H]1C(=O)OC(C#N)c1cccc(Oc2ccccc2)c1` (some centres unmarked) [Compound P31C], the “Relative Toxicity, Houseflies” value in test [2] came out at 840. Also, the “Relative Toxicity, Mustard Beetles” value in test [3] is listed as 730.

On to `CC1(C)[C@H](C(=O)OCc2coc(Cc3ccccc3)c2)[C@@H]1C=C(F)F` [Compound P31D], for which the “Relative Toxicity, Houseflies” value in test [2] is reported as 2300. The “Relative Toxicity, Mustard Beetles” value in test [3] was found to be 1300.

Consider `CC1(C)[C@H](C(=O)OCc2cccc(Oc3ccccc3)c2)[C@@H]1C=C(F)F` [Compound P31E], for which, in test [2], the “Relative Toxicity, Houseflies” value was 1800. Also, the “Relative Toxicity, Mustard Beetles” value in test [3] turned out to be 850.

As to `CC1(C)[C@H](C(=O)OC(C#N)c2cccc(Oc3ccccc3)c2)[C@@H]1C=C(F)F` (some centres unmarked) [Compound P31F], the “Relative Toxicity, Houseflies” value in test [2] turned out to be 1200. In addition, the “Relative Toxicity, Mustard Beetles” value in test [3] worked out at 2200.

Take `CC1(C)[C@H](C(=O)OCc2cccc(C(=O)c3ccccc3)c2)[C@@H]1C=C(Br)Br` [Compound P39A, 3-benzoylbenzyl(1R)cis-2,2-dimethyl-3-(2,2-dibromovinyl)-cyclopropane carboxylate]: the “Relative Toxicity, Houseflies” value in test [2] is 50. For the same compound, in test [3], the “Relative Toxicity, Mustard Beetles” value came out at 830.

As to `CC1(C)[C@H](C=C(F)F)[C@H]1C(=O)OCc1cccc(C(=O)c2ccccc2)c1` [Compound P39C, 3-benzoylbenzyl(1R)trans-2,2-dimethyl-3-(2,2-difluorovinyl)-cyclopropane carboxylate], in test [2], the “Relative Toxicity, Houseflies” value was 6. The “Relative Toxicity, Mustard Beetles” value in test [3] was determined as 50.

As to `CC1(C)[C@H](C(=O)OCc2cccc(C(=O)c3ccccc3)c2)[C@@H]1C=C(F)F` [Compound P39D, 3-benzoylbenzyl(1R)-cis-2,2-dimethyl-3-(2,2-difluorovinyl)-cyclopropane carboxylate], the “Relative Toxicity, Houseflies” value in test [2] amounted to 20. For the same compound, in test [3], the “Relative Toxicity, Mustard Beetles” value is 500.

In the case of `CC/C=C\[C@@H]1[C@@H](C(=O)OCc2cccc(Cc3ccccc3)c2)C1(C)C` [Compound S], in test [2], the “Relative Toxicity, Houseflies” value is given as 120. Also, the “Relative Toxicity, Mustard Beetles” value in test [3] was found to be 170.

For `CC1(C)[C@H](C=CCl)[C@H]1C(=O)OCc1coc(Cc2ccccc2)c1` [K], the “Relative Toxicity, Houseflies” value in test [2] amounted to 1300. The “Relative Toxicity, Mustard Beetles” value in test [3] was 1600.

Turning to `C#CC(OC(=O)[C@@H]1[C@H](C=C(Br)Br)C1(C)C)c1cccc(Oc2ccccc2)c1` (some centres unmarked) [ME7], the “Relative Toxicity, Houseflies” value in test [2] came to 1100. The “Relative Toxicity, Mustard Beetles” value in test [3] worked out at 5000.

On to `C=CCC1=C(C)C(OC(=O)[C@@H]2[C@@H](C=C(F)F)C2(C)C)CC1=O` (some centres unmarked) [ME9], for which the “Relative Toxicity, Houseflies” value in test [2] is 50. Also, the “Relative Toxicity, Mustard Beetles” value in test [3] is listed as 50.

Take `C=CCC1=C(C)C(OC(=O)[C@@H]2[C@H](C=C(F)F)C2(C)C)CC1=O` (some centres unmarked) [ME10]: the “Relative Toxicity, Houseflies” value in test [2] is 40. For the same compound, the “Relative Toxicity, Mustard Beetles” value in test [3] is 30.

For `CC1(C)C(C=C(Br)Br)C1C(=O)OC(C#N)c1cccc(Oc2ccccc2)c1` [P29B (non-crystalline isomer), (αR)-cyano-3-phenoxybenzyl(1R)cis-2,2-dimethyl-3-(2,2-dibromovinyl)cyclopropane carboxylate], the “Relative Toxicity, Houseflies” value in test [2] came to 3500. Also, in test [3], the “Relative Toxicity, Mustard Beetles” value came to 4000.

As to `C=C/C=C\CC1=C(C)[C@@H](OC(=O)[C@@H]2[C@@H](C=C(C)C)C2(C)C)CC1=O` [Pyrethrin I, reference compound], in test [2], the “Relative Toxicity, Houseflies” value amounted to 12. The “Relative Toxicity, Mustard Beetles” value in test [3] is 1600.

Regarding `C=CCC1=C(C)C(OC(=O)[C@@H]2[C@@H](/C=C\CC)C2(C)C)CC1=O` (some centres unmarked) [Q], the “Relative Toxicity, Houseflies” value in test [2] was determined as 60. The “Relative Toxicity, Mustard Beetles” value in test [3] was 69.

Consider `CC/C=C\[C@@H]1[C@@H](C(=O)OCc2cccc(Oc3ccccc3)c2)C1(C)C` [T], for which the “Relative Toxicity, Houseflies” value in test [2] stood at 240. The “Relative Toxicity, Mustard Beetles” value in test [3] amounted to 300.
